According to patent publication US20210060016A1, “ANTICANCER AGENT” (JAPANESE FOUNDATION FOR CANCER RESEARCH, priority 2017, published 2021):

Biological target: T1, tankyrase-2 (Homo sapiens, UniProt Q9H2K2)
T1 sequence (Q9H2K2 1-1166): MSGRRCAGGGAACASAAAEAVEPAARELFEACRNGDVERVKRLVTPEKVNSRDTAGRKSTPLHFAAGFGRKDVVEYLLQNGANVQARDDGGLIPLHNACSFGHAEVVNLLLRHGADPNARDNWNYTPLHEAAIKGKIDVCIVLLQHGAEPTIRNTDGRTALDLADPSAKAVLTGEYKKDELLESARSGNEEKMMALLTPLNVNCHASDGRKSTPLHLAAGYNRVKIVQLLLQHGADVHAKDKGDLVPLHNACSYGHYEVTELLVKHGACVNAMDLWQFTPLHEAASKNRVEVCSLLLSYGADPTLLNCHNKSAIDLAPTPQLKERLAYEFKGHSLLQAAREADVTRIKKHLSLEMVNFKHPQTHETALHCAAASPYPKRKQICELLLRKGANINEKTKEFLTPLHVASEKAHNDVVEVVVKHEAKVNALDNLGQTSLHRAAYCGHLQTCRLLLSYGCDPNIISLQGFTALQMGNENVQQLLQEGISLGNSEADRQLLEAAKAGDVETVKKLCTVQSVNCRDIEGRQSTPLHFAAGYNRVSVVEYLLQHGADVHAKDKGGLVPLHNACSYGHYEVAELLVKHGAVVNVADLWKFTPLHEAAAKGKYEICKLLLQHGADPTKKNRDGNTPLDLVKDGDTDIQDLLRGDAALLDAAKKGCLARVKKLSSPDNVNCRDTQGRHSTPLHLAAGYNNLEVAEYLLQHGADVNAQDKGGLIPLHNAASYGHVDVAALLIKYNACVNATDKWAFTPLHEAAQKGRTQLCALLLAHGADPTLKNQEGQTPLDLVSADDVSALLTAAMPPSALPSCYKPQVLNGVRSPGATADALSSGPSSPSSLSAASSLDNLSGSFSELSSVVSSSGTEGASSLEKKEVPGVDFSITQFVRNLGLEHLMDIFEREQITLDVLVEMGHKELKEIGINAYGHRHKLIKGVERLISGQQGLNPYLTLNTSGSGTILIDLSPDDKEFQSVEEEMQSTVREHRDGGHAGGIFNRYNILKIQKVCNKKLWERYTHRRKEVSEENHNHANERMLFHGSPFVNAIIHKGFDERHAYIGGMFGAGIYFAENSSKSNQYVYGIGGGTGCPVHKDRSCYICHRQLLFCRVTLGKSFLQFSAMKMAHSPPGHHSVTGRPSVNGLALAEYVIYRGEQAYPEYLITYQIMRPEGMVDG
Assay: X-ray diffraction of tankyrase-2 crystal soaked with the compound
Format: binding
Excerpt: In the present invention, whether the tankyrase inhibitory compound is a nicotinamide-type compound or an adenosine-type compound can be determined by X-ray diffraction, more specifically a method in which a complex is crystallized from a mixed liquid of a tankyrase crystal prepared beforehand and the tankyrase inhibitory compound, and subjected to X-ray diffraction (soaking method), or a method in which a complex is crystallized from a mixed liquid having the tankyrase inhibitory compound coexisting with tankyrase in a state before the crystallization, and subjected to X-ray diffraction (co-crystallization). Whether the tankyrase inhibitory compound is a dual-type compound can be determined by preparing a crystal under any one of the above-described conditions, and performing X-ray diffraction.
X-ray diffraction data of a tankyrase-2 crystal soaked with the compound prepared in Compound Example 1 was measured with BL26B2 Beam Line in a large synchrotron radiation facility Spring-8 (Sayo-gun, Hyogo). The wavelength of the X-ray was 1.000 Å, and MX-225 (Rayonix, LLC) was used as a detector. The diffraction data was treated with XDS (Kabsch, 2010) and the CCP4 program (Winn et al., 2011).

In the case of `CCOc1ccc(-c2n[nH]nc2[C@H]2NC(=O)c3cccc(C)c3N2)cc1` [Compound Example 101, (2R)-2-[5-(4-Ethoxyphenyl)-2H-1,2,3-triazol-4-yl]-8-methyl-2,3-dihydro-1H-quinazolin-4-one], the “binding pocket type by X-ray diffraction” value is reported as “nicotinamide-type compound which binds to the nicotinamide binding pocket of tankyrase”.
